From patent US8183262B2, “Pyridine derivatives as mGluR2 antagonists” (Hoffmann-La Roche Inc., priority 2007, dated 2012)

With CS(=O)(=O)c1cccc(-c2cccc(-c3nc(-c4ccc(C(F)(F)F)cc4)cc(C(F)(F)F)n3)c2)c1 [Example 219, 2-(3′-Methanesulfonyl-biphenyl-3-yl)-4-trifluoromethyl-6-(4-trifluoromethyl-phenyl)-pyrimidine] as the molecule, how does the melting point read?
Its melting point is 183.5 °C.

For Nc1cccc(-c2cccc(-c3nc(-c4ccc(C(F)(F)F)cc4)cc(C(F)(F)F)n3)c2)c1 [Example 220, 3′-[4-Trifluoromethyl-6-(4-trifluoromethyl-phenyl)-pyrimidin-2-yl]-biphenyl-3-ylamine], which melting point is on record?
Its melting point is 156.5 °C.

With Cc1cc(-c2ccc(Cl)c(C)c2)nc(-n2cnc(-c3cccc(S(N)(=O)=O)c3)c2)n1 [Example 224, 3-{1-[4-(4-Chloro-3-methyl-phenyl)-6-methyl-pyrimidin-2-yl]-1H-imidazol-4-yl}-benzenesulfonamide] as the molecule, how does the melting point read?
Its melting point is 219 °C (dec.).

For Cc1cc(-c2ccc(Cl)c(C)c2)nc(-n2cnc(-c3ccc(S(N)(=O)=O)s3)c2)n1 [Example 225, 5-{1-[4-(4-Chloro-3-methyl-phenyl)-6-methyl-pyrimidin-2-yl]-1H-imidazol-4-yl}-thiophene-2-sulfonic acid amide], which melting point is on record?
Its melting point is 267 °C (dec.).

Which melting point does the source give for Cc1cc(-c2ccc(Cl)c(C)c2)nc(-n2cnc(-c3ccc(N)nc3)c2)n1 [Example 226, 5-{1-[4-(4-Chloro-3-methyl-phenyl)-6-methyl-pyrimidin-2-yl]-1H-imidazol-4-yl}-pyridin-2-ylamine] here?
Its melting point is 202 °C (dec.).

With Cc1cc(-c2ccc(Cl)cc2)cc(-c2cccc(-c3ccc(N)nc3)c2)n1 [Example 229, 5-{3-[4-(4-Chloro-phenyl)-6-methyl-pyridin-2-yl]-phenyl}-pyridin-2-ylamine] as the molecule, how does the melting point read?
The melting point was 76 to 95 °C.

Which melting point does the source give for Cc1cc(-c2ccc(C(F)(F)F)cc2)cc(-c2nc(-c3ccc(N)nc3)cs2)n1 [Example 230, 5-{2-[6-Methyl-4-(4-trifluoromethyl-phenyl)-pyridin-2-yl]-thiazol-4-yl}-pyridin-2-ylamine] here?
Its melting point is 191 °C.

Which melting point does the source give for Cc1cc(-c2ccc(C(F)(F)F)cc2)cc(-c2nc(-c3cnc(N)nc3)cs2)n1 [Example 231, 5-{2-[6-Methyl-4-(4-trifluoromethyl-phenyl)-pyridin-2-yl]-thiazol-4-yl}-pyrimidin-2-ylamine] here?
Its melting point is greater than 250 °C.

With Nc1ccc(-c2cccc(-c3cc(-c4ccc(C(F)(F)F)cc4)cc(C(F)(F)F)n3)c2)cn1 [Example 232, 5-{3-[6-Trifluoromethyl-4-(4-trifluoromethyl-phenyl)-pyridin-2-yl]-phenyl}-pyridin-2-ylamine] as the molecule, how does the melting point read?
The melting point was 166 °C.

For Nc1ncc(-c2cccc(-c3cc(-c4ccc(C(F)(F)F)cc4)cc(C(F)(F)F)n3)c2)cn1 [Example 233, 5-{3-[6-Trifluoromethyl-4-(4-trifluoromethyl-phenyl)-pyridin-2-yl]-phenyl}-pyrimidin-2-ylamine], which melting point is on record?
The melting point was 260 °C.

For Nc1ncc(-c2cccc(-c3cc(-c4ccc(Cl)cc4)cc(C(F)(F)F)n3)c2)cn1 [Example 234, 5-{3-[4-(4-Chloro-phenyl)-6-trifluoromethyl-pyridin-2-yl]-phenyl}-pyrimidin-2-ylamine], which melting point is on record?
Its melting point is 239 °C.

Which melting point does the source give for Nc1ccc(-c2cccc(-c3cc(-c4ccc(Cl)cc4)cc(C(F)(F)F)n3)c2)cn1 [Example 235, 5-{3-[4-(4-Chloro-phenyl)-6-trifluoromethyl-pyridin-2-yl]-phenyl}-pyridin-2-ylamine] here?
Its melting point is 172 °C.

For Cc1cc(-c2ccc(C(F)(F)F)cc2)cc(-c2nc(-c3ccc(N)nc3)no2)n1 [Example 236, 5-{5-[6-Methyl-4-(4-trifluoromethyl-phenyl)-pyridin-2-yl]-[1,2,4]oxadiazol-3-yl}-pyridin-2-ylamine], which melting point is on record?
Its melting point is 163 °C.

With Nc1ccc(-c2noc(-c3cc(C(F)(F)F)cc(-c4ccc(C(F)(F)F)cc4)n3)n2)cn1 [Example 238, 5-{5-[4-Trifluoromethyl-6-(4-trifluoromethyl-phenyl)-pyridin-2-yl]-[1,2,4]oxadiazol-3-yl}-pyridin-2-ylamine] as the molecule, how does the melting point read?
The melting point was 229 °C.

For Cc1cc(-c2ccc(C(F)(F)F)cc2)cc(-c2ccnc(-c3ccc(N)nc3)n2)n1 [Example 239, 5-{4-[6-Methyl-4-(4-trifluoromethyl-phenyl)-pyridin-2-yl]-pyrimidin-2-yl}-pyridin-2-ylamine], which melting point is on record?
Its melting point is 191 °C.

With Cc1cc(-c2ccc(C(F)(F)F)cc2)cc(-c2ccnc(-c3cnc(N)nc3)n2)n1 [Example 240, 4-[6-Methyl-4-(4-trifluoromethyl-phenyl)-pyridin-2-yl]-[2,5′]bipyrimidinyl-2′-ylamine] as the molecule, how does the melting point read?
Its melting point is 264 °C.

Which melting point does the source give for Cc1cc(-c2ccc(C(F)(F)F)cc2)cc(-c2nccc(-c3ccc(N)nc3)n2)n1 [Example 241, 5-{2-[6-Methyl-4-(4-trifluoromethyl-phenyl)-pyridin-2-yl]-pyrimidin-4-yl}-pyridin-2-ylamine] here?
The melting point was 258 °C.

Which melting point does the source give for Cc1cc(-c2ccc(Cl)c(Cl)c2)cc(-n2cnc(-c3ccc(N)nc3)c2)n1 [Example 246, 5-{1-[4-(3,4-Dichloro-phenyl)-6-methyl-pyridin-2-yl]-1H-imidazol-4-yl}-pyridin-2-ylamine] here?
Its melting point is 245 °C.

Which melting point does the source give for Cc1cc(-c2ccc(C(F)(F)F)cc2)cc(-c2cccc(-c3cncc(S(N)(=O)=O)c3)c2)n1 [Example 248, 5-{3-[6-Methyl-4-(4-trifluoromethyl-phenyl)-pyridin-2-yl]-phenyl}-pyridine-3-sulfonic acid amide] here?
The melting point was greater than 250 °C.

For Cc1cc(-c2ccc(Cl)c(Cl)c2)cc(-c2cccc(-c3cnc(N)nc3)c2)n1 [Example 250, 5-{3-[4-(3,4-Dichloro-phenyl)-6-methyl-pyridin-2-yl]-phenyl}-pyrimidin-2-ylamine], which melting point is on record?
The melting point was 188 °C.

With Cc1cc(-c2ccc(C(F)(F)F)cc2)cc(-c2nccs2)n1 [Example 251, 2-Methyl-6-thiazol-2-yl-4-(4-trifluoromethyl-phenyl)-pyridine] as the molecule, how does the melting point read?
The melting point was 103 °C.

With Cc1cc(-c2ccc(C(F)(F)F)cc2)cc(-c2ccc(-c3ccc(N)nc3)s2)n1 [Example 252, 5-{5-[6-Methyl-4-(4-trifluoromethyl-phenyl)-pyridin-2-yl]-thiophen-2-yl}-pyridin-2-ylamine] as the molecule, how does the melting point read?
Its melting point is 196 °C.

Which melting point does the source give for Cc1cc(-c2ccc(C(F)(F)F)cc2)cc(-c2ccc(-c3cnc(N)nc3)s2)n1 [Example 253, 5-{5-[6-Methyl-4-(4-trifluoromethyl-phenyl)-pyridin-2-yl]-thiophen-2-yl}-pyrimidin-2-ylamine] here?
The melting point was greater than 250 °C.

With Cc1cc(-c2ccc(Cl)c(Cl)c2)cc(-c2ccc(N3C=CC=CC3N)s2)n1 (centres unmarked) [Example 254, 1-{5-[4-(3,4-Dichloro-phenyl)-6-methyl-pyridin-2-yl]-thiophen-2-yl}-pyridin-2-ylamine] as the molecule, how does the melting point read?
Its melting point is 180 °C.

With Cc1cc(-c2ccc(Cl)c(Cl)c2)cc(-c2ccc(-c3cnc(N)nc3)s2)n1 [Example 255, 5-{5-[4-(3,4-Dichloro-phenyl)-6-methyl-pyridin-2-yl]-thiophen-2-yl}-pyrimidin-2-ylamine] as the molecule, how does the melting point read?
The melting point was 237 °C.

With Cc1cc(-c2ccc(C(F)(F)F)cc2)cc(-c2cc(-c3ccc(N)nc3)cs2)n1 [Example 256, 5-{5-[6-Methyl-4-(4-trifluoromethyl-phenyl)-pyridin-2-yl]-thiophen-3-yl}-pyridin-2-ylamine] as the molecule, how does the melting point read?
Its melting point is 175 °C.
